Measured values published in patent US8349846B2, “Fused pyrimidine derivatives as TRPV3 modulators” (Glenmark Pharmaceuticals, S.A., priority 2008, dated 2013).

Target: T1, Human TRPV3 (Homo sapiens, UniProt Q8NET8)
T1 construct: expressed in transfected cells; host or cells: CHO cells (selected with G-418)
T1 sequence (Q8NET8 1-790): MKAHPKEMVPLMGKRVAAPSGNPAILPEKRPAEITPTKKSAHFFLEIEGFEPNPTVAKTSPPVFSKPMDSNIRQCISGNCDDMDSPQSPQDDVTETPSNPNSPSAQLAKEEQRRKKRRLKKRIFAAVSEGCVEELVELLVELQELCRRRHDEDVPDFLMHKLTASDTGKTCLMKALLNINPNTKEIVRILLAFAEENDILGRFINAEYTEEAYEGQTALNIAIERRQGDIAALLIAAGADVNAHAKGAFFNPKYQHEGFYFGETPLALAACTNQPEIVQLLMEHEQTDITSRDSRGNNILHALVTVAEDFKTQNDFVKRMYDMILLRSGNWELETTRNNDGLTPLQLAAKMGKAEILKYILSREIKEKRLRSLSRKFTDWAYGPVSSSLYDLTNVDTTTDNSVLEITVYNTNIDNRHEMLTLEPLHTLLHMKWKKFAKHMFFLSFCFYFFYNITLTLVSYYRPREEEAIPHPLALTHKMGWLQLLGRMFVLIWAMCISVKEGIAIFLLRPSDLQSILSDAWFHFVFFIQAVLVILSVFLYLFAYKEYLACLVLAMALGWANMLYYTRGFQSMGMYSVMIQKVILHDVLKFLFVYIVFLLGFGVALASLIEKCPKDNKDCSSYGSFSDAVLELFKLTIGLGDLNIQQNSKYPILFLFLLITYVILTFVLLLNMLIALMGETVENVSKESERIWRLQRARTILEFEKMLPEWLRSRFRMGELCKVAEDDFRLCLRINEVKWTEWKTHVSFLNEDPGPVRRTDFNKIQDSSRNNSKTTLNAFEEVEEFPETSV
Assay: Screening for TRPV3 antagonist using the 45Calcium uptake assay (inhibition of 2-APB induced cellular uptake of radioactive calcium)
Format: cell-based
Settings: Human TRPV3 expressing CHO cells, 2-APB 500 μM; for inhibition at 1 µM / inhibition at 10 µM: CHO; for inhibition at 1 µM: read-out: Percentage inhibition at 1.0 μM; for inhibition at 10 µM: read-out: Percentage inhibition at 10.0 μM
From the text: The illustrative examples of the present invention are screened for TRPV3 activity according to a modified procedure described in Tóth, A., Kedei, N., Wang, Y. and Blumberg, P. M. Life Sciences (2003), 73, 487-498. The screening of the compounds can be carried out by other methods and procedures known to a person skilled in the art. Such screening methods may be found in (a) Hu, H.-Z. et al. J. Biol. Chem. (2004), 279, 35741-35747; (b) Smith, G. D. et al. Nature (2002), 418, 186-190; (c) Peier, A. M. et al. Science (2002), 296, 2046-2049.
Screening for TRPV3 Antagonist Using the ^45Calcium Uptake Assay:
The inhibition of TRPV3 receptor activation was followed as inhibition of 2-aminoethxydiphenylborate (2-APB) induced cellular uptake of radioactive calcium. Test compounds were dissolved in dimethyl sulfoxide (DMSO) to prepare 20 mM stock solution and then diluted using plain medium with DMEM/F-12 containing 1.8 mM CaCl2 to get desired concentration. Final concentration of DMSO in the reaction was 0.5% (v/v). Human TRPV3 expressing CHO cells were grown in DMEM/F-12 medium with 10% FBS, 1% penicillin-streptomycin solution, 400 μg/ml of G-418. Cells were seeded 24 h prior to the assay in 96 well plates so as to get ˜50,000 cells per well on the day of experiment. Cells were treated with test compounds for 10 minutes followed by addition of 2-APB at a final concentration of 500 μM and 5 μCi/ml ^45Ca^+2 for 4 minutes. Cells were washed and lysed using buffer containing 1% Triton X-100, 0.1% deoxycholate and 0.1% SDS. Radioactivity in the lysate was measured in Packardt Top count after addition of liquid scintillant. Concentration response curves were plotted as a % of maximal response obtained in the absence of test antagonist. IC50 value was calculated from concentration response curve by nonlinear regression analysis using GraphPad PRISM software.
Percentage inhibition at concentrations of 1.0 μM and 10.0 μM are given in the table along with IC50 (nM) values for selected examples.

Row | Compound | inhibition at 1 µM (1.0 μM test compound) [%] | inhibition at 10 µM (10.0 μM test compound) [%] | IC50 [nM] | Percentage inhibition at 1.0 μM (1.0 μM test compound) [%] | Percentage inhibition at 10.0 μM (10.0 μM test compound) [%]
1 | COc1cccc(/C=C/c2nc3ccccn3c(=O)c2-c2cccc(OC(C)C)c2)c1OC1CCCC1 [Example 27, 3-(3-Isopropoxyphenyl)-2-[(E)-2-(2-cyclopentyloxy-3-methoxy)phenylvinyl]-4H-pyrido-[1,2-a]pyrimidin-4-one] | 54.2 | 77.6 | 1000 to 2500 |  | 
2 | COc1cccc(/C=C/c2nc3ccccn3c(=O)c2-c2ccc(C#N)cc2)c1OC1CCCC1 [Example 28, 4-{2-[(E)-2-(2-Cyclopentyloxy-3-methoxyphenyl)vinyl]-4-oxo-4H-pyrido[1,2-a]-pyrimidin-3-yl}benzonitrile] |  |  | < 500 | 83.5 | 94.7
3 | COc1cccc(/C=C/c2nc3ccccn3c(=O)c2-c2ccc(C(=O)O)cc2)c1OC1CCCC1 [Example 29, 4-{4-Oxo-2-[(E)-2-(2-cyclopentyloxy-3-methoxy)phenylvinyl]-4H-pyrido[1,2-a]pyrimidin-3-yl}benzoic acid] | 0 | 0.2 |  |  | 
4 | COc1cccc(/C=C/c2nc3ccccn3c(=O)c2-c2ccc([N+](=O)[O-])cc2)c1OC1CCCC1 [Example 30, 2-{(E)-2-[(2-Cyclopentyloxy)-3-methoxyphenyl]vinyl}-3-(4-nitro)phenyl-4H-pyrido[1,2-a]pyrimidin-4-one] | 52 | 76.4 |  |  | 
5 | COc1cccc(/C=C/c2nc3ccccn3c(=O)c2-c2cccc(NC(C)=O)c2)c1OC1CCCC1 [Example 31, N-(3-{2-[(E)-2-(2-Cyclopentyloxy-3-methoxy)phenylvinyl]-4-oxo-4H-pyrido[1,2-a]pyrimidin-3-yl}phenyl)acetamide] | 50.4 | 96.2 |  |  | 
6 | COc1cccc(/C=C/c2nc3ccccn3c(=O)c2-c2ccc(NC(C)=O)cc2)c1OC1CCCC1 [Example 32, N-(4-{2-[(E)-2-(2-Cyclopentyloxy-3-methoxy)phenylvinyl]-4-Oxo-4H-pyrido[1,2-a]pyrimidin-3-yl}phenyl)acetamide] | 34.2 | 89.6 |  |  | 
7 | COc1cccc(/C=C/c2nc3ccccn3c(=O)c2-c2ccc(C(C)=O)cc2)c1OC1CCCC1 [Example 33, 3-(4-Acetylphenyl)-2-[(E)-2-(2-cyclopentyloxy-3-methoxy)phenylvinyl]-4H-pyrido[1,2-a]pyrimidin-4-one] | 78 | 94.3 | < 500 |  | 
8 | COc1cccc(/C=C/c2nc3ccccn3c(=O)c2-c2ccc(SC)cc2)c1OC1CCCC1 [Example 34, 2-{(E)-2-[(2-Cyclopentyloxy-3-methoxy)phenyl]vinyl}-3-(4-thiomethyl)phenyl-4H-pyrido[1,2-a]pyrimidin-4-one] | 36.8 | 51.3 |  |  | 
9 | COc1cccc(/C=C/c2nc3ccccn3c(=O)c2-c2ccncc2)c1OC1CCCC1 [Example 35, 2-{(E)-2-[2-(Cyclopentyloxy)-3-methoxyphenyl]vinyl}-3-pyridin-4-yl-4H-pyrido[1,2-a]-pyrimidin-4-one] | 18.4 | 63.3 |  |  | 
10 | COc1cccc(/C=C/c2nc3ccccn3c(=O)c2-c2ccc(F)nc2)c1OC1CCCC1 [Example 36, 2-{(E)-2-[2-(Cyclopentyloxy-3-methoxy)phenyl]vinyl}-3-(6-fluoro)pyridin-3-yl-4H-pyrido[1,2-a]pyrimidin-4-one] | 42.2 | 82.4 | 500 to 1000 |  | 
11 | COc1cccc(/C=C/c2nc3ccccn3c(=O)c2-c2ccc3c(c2)OCO3)c1OC1CCCC1 [Example 37, 3-(1,3-Benzodioxol-5-yl)-2-[(E)-2-(2-cyclopentyloxy-3-methoxy)phenylvinyl]-4H-pyrido[1,2-a]pyrimidin-4-one] | 70.1 | 91.4 |  |  | 
12 | COc1cccc(/C=C/c2nc3ccccn3c(=O)c2-c2ccc3c(c2)OCCO3)c1OC1CCCC1 [Example 38, 2-[(E)-2-(2-Cyclopentyloxy-3-methoxyphenyl)vinyl]-3-(2,3-dihydro-1,4-benzodioxin-6-yl)-4H-pyrido[1,2-a]pyrimidin-4-one] | 55.5 | 83.8 | < 500 |  | 
13 | COc1cccc(/C=C/c2nc3ccccn3c(=O)c2-c2ccc3ncccc3c2)c1OC1CCCC1 [Example 39, 2-[(E)-2-(2-Cyclopentyloxy-3-methoxy)phenylvinyl]-3-quinolin-6-yl-4H-pyrido[1,2-a]pyrimidin-4-one] | 84.6 | 96.1 | < 500 |  | 
14 | COc1cccc(/C=C/c2nc3c(C)cccn3c(=O)c2-c2ccc(C(F)(F)F)cc2)c1OC1CCCC1 [Example 40, 2-{(E)-2-[(2-Cyclopentyloxy-3-methoxy)phenyl]vinyl}-9-methyl-3-(4-trifluoromethyl)phenyl-4H-pyrido[1,2-a]pyrimidin-4-one] | 23.1 | 18.7 |  |  | 
15 | COc1cccc(/C=C/c2nc3c(OC)cccn3c(=O)c2-c2ccc(C#N)cc2)c1OC1CCCC1 [Example 41, 4-{2-[(E)-2-(2-Cyclopentyloxy-3-methoxyphenyl)vinyl]-9-methoxy-4-oxo-4H-pyrido[1,2-a]pyrimidin-3-yl}benzonitrile] | 54.8 | 87.6 |  |  | 
16 | COc1cccc(/C=C/c2nc3ccc(Cl)cn3c(=O)c2-c2ccc(C#N)cc2)c1OCC1CC1 [Example 42] | 0 | 96.8 |  |  | 
17 | COc1cccc(/C=C/c2nc3ccc(Cl)cn3c(=O)c2-c2ccc(C#N)cc2)c1OC1CCCC1 [Example 43, 4-{7-Chloro-2-[(E)-2-(2-cyclopentyloxy-3-methoxy)phenylvinyl]-4-oxo-4H-pyrido[1,2-a]pyrimidin-3-yl}benzonitrile] | 78.7 | 90.2 | < 500 |  | 
